Measurements published in PMC7827406, “Structure–Activity Relationship (SAR) Study of Spautin-1 to Entail the Discovery of Novel NEK4 Inhibitors” (International Journal of Molecular Sciences, 2021).
Like-named read-outs stand apart in the source and are kept apart here.

Tests used:
Experiment in all cases: biochemical
Set-up in all cases: Eurofins KinaseProfiler full panel at Km ATP, residual kinase activity (%) relative to DMSO
[1] = biological target: T1, PI3 Kinase (p120g)(h) (Homo sapiens, UniProt P48736)
T1 construct: gene PIK3CG
T1 sequence (P48736 whole entry): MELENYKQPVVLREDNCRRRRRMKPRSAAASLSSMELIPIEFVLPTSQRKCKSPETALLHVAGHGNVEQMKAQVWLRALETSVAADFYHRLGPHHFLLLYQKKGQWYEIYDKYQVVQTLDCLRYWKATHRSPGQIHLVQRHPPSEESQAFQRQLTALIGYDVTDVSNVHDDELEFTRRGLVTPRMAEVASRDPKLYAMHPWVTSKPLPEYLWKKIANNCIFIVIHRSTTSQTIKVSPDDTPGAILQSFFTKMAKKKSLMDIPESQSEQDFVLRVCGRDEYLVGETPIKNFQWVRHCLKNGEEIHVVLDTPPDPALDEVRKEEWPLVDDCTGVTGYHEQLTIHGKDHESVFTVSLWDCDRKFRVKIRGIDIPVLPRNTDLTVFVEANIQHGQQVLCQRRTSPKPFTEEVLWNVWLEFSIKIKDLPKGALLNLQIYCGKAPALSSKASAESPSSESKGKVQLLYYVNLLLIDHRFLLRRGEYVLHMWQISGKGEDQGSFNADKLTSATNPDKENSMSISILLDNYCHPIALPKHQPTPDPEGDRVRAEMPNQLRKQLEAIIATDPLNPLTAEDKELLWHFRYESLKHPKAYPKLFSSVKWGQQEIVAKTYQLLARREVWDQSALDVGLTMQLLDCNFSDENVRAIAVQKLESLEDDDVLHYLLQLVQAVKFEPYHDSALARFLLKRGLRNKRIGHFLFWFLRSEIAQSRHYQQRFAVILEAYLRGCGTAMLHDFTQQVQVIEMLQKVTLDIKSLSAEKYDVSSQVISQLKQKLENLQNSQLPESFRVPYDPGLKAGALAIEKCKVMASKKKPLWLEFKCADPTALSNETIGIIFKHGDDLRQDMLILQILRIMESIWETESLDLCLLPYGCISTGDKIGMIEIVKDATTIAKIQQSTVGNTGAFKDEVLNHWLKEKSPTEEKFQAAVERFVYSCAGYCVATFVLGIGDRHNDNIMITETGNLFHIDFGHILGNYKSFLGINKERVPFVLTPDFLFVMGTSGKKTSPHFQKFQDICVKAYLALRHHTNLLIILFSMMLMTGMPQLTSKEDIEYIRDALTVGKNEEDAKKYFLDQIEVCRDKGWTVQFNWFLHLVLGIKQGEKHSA
Procedure, shortened: (§1)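 Two 10 µM single-concentration screens were run: a competition-binding screen, in which DNA-tagged kinase bound to immobilized ligands was quantified by qPCR, and a radiometric activity panel at Km ATP. Each is expressed as residual kinase activity (%).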

[2] = biological target: T2, JAK3(h) (Homo sapiens, UniProt P52333)
T2 sequence (P52333 1-1124): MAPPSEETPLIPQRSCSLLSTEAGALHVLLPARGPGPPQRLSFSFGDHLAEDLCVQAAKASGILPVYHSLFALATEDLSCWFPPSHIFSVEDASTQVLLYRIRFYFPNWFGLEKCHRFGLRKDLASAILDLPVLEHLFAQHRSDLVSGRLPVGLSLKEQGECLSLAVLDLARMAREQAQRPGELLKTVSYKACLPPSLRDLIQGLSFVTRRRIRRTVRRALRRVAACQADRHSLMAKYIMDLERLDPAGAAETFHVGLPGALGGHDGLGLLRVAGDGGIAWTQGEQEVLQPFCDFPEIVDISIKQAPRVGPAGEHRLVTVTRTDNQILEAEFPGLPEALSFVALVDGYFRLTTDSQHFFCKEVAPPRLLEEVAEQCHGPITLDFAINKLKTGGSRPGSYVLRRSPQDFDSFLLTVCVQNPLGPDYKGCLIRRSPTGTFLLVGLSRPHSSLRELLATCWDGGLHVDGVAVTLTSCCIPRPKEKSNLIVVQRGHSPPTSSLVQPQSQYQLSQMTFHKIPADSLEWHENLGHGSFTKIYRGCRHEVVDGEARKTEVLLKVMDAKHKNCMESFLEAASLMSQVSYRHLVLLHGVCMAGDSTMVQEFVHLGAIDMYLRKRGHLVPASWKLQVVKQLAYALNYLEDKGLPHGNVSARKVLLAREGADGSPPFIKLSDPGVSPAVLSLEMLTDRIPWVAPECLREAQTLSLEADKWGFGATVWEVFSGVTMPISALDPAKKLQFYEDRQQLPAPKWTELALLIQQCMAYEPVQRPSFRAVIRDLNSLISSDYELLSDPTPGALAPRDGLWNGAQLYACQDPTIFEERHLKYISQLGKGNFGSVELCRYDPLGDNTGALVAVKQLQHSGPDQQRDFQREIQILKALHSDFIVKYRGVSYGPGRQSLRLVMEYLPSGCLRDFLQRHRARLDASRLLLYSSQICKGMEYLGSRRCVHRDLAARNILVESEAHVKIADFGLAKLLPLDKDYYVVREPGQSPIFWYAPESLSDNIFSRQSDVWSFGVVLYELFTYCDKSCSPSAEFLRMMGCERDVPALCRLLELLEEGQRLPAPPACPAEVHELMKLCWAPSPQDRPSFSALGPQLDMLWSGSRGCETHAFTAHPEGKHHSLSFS
Procedure, shortened: as §1

[3] = biological target: FGFR3(h) (Homo sapiens, UniProt P22607)
Chain of FGFR3(h) (P22607 whole entry): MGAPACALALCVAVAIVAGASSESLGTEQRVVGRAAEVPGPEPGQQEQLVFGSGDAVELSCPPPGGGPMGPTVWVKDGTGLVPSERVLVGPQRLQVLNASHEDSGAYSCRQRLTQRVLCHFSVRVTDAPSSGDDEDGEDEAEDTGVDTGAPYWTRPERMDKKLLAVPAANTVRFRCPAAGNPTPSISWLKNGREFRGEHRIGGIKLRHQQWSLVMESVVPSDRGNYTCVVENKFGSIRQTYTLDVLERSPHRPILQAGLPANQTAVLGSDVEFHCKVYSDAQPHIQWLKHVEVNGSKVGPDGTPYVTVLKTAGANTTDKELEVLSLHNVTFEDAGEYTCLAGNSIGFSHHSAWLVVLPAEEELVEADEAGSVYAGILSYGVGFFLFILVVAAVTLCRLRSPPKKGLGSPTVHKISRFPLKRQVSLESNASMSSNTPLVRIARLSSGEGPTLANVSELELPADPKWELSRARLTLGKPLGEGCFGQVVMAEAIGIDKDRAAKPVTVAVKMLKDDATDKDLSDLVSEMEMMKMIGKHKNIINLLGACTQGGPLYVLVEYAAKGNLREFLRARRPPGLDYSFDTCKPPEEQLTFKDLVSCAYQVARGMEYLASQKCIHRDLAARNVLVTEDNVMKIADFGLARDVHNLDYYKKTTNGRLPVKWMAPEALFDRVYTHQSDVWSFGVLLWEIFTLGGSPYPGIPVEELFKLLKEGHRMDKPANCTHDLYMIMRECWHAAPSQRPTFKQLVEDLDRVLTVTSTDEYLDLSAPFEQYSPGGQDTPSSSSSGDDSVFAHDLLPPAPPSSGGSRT
Procedure, shortened: as §1

[4] = biological target: T3, EphB3(h) (Homo sapiens, UniProt P54753)
T3 sequence (P54753 1-998): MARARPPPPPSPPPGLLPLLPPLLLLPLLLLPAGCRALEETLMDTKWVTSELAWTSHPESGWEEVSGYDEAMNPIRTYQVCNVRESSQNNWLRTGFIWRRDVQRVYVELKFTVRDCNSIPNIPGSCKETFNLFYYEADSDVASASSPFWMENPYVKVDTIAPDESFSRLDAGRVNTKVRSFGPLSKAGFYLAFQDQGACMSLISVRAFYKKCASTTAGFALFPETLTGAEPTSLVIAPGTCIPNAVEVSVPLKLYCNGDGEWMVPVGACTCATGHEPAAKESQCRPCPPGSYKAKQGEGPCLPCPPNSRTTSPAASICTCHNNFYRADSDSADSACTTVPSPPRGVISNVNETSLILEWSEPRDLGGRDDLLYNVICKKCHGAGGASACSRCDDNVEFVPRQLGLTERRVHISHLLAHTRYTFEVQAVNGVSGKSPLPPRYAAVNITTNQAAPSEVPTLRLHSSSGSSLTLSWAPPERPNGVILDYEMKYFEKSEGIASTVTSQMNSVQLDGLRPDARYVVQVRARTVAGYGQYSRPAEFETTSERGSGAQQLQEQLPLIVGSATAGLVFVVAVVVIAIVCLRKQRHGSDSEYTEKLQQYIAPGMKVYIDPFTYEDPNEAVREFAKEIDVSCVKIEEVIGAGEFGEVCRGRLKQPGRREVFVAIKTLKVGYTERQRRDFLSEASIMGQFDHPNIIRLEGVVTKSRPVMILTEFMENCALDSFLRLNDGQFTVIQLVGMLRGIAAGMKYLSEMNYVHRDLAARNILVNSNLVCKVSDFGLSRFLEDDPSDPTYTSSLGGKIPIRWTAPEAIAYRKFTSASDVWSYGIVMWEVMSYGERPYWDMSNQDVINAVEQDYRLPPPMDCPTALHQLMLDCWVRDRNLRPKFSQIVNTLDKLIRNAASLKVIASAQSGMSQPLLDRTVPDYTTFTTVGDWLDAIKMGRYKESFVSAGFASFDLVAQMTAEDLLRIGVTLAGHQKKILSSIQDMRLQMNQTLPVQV
Procedure, shortened: as §1

[5] = biological target: CaMKK2(h) (Homo sapiens, UniProt Q96RR4)
Chain of CaMKK2(h) (Q96RR4 whole entry): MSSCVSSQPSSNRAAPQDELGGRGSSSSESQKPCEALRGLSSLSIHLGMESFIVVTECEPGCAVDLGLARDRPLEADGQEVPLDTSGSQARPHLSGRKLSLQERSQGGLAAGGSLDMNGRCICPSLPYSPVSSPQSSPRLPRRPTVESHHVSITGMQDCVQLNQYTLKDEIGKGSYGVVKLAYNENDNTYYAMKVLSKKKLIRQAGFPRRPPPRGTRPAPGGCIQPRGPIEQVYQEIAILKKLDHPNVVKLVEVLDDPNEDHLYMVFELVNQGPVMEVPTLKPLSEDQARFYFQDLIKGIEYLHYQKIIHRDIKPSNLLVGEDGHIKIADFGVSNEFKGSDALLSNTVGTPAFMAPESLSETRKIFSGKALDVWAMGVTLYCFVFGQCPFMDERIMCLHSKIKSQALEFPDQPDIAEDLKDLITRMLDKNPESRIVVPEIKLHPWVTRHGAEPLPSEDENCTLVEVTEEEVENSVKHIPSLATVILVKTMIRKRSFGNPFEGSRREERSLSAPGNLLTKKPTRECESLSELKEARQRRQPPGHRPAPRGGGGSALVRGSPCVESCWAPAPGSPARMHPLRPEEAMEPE
Procedure, shortened: as §1

[6] = read-out: Residual activity (%) Spautin-1 5aa
[7] = read-out: Residual activity (%) 5as
[8] = read-out: Residual activity (%) 5at
[9] = read-out: Residual activity (%) 5ay

`Fc1ccc(CNc2ncnc3ccc(F)cc23)cc1` [5aa, 6-Fluoro-N-(4-fluorobenzyl)-4-Quinazolinamine] gave a remaining activity at 10 µM [1, 6] of 91%, a remaining activity at 10 µM [2, 6] of 94% and a remaining activity at 10 µM [3, 6] of 97%. For the same compound, the remaining activity at 10 µM [4, 6] was 93% and the remaining activity at 10 µM [5, 6] was 79%.
`Fc1ccc(CCNc2ncnc3ccc(F)cc23)cc1` [5as, 6-Fluoro-N-[2-(4-Fluorophenyl)Ethyl]-4-Quinazolinamine] gave a remaining activity at 10 µM [1, 7] of 92%, a remaining activity at 10 µM [2, 7] of 94% and a remaining activity at 10 µM [3, 7] of 108%. For the same compound, the remaining activity at 10 µM [4, 7] was 79% and the remaining activity at 10 µM [5, 7] was 87%.
Work on `Fc1ccc2ncnc(NCCc3ccc(Cl)cc3)c2c1` [5at, N-[2-(4-Chlorophenyl)Ethyl]-6-Fluoro-4-Quinazolinamine] yielded a remaining activity at 10 µM [1, 8] of 90%, a remaining activity at 10 µM [2, 8] of 92% and a remaining activity at 10 µM [3, 8] of 99%. The remaining activity at 10 µM [4, 8] was 76% and the remaining activity at 10 µM [5, 8] was 96%.
Work on `COc1ccc2ncnc(Nc3cccc(F)c3)c2c1` [5ay, N-(3-Fluorophenyl)-6-Methoxy-4-Quinazolinamine] yielded a remaining activity at 10 µM [1, 9] of 91%, a remaining activity at 10 µM [2, 9] of 91% and a remaining activity at 10 µM [3, 9] of 94%. For the same compound, the remaining activity at 10 µM [4, 9] was 84% and the remaining activity at 10 µM [5, 9] was 78%.
